Results taken from patent US20240360179A1, “STAPLED PEPTIDES AND METHODS THEREOF” (FOG PHARMACEUTICALS, INC., priority 2021, published 2024).

What was measured:
[1] = target: T1, full-length B-Catenin (Uniprot ID P35222) (Homo sapiens, UniProt P35222); format: binding; conditions: read-out: Competition Fluorescence Polarization IC50
T1 construct: 10 nM full-length B-Catenin (Uniprot ID P35222)
T1 sequence (P35222 1-781): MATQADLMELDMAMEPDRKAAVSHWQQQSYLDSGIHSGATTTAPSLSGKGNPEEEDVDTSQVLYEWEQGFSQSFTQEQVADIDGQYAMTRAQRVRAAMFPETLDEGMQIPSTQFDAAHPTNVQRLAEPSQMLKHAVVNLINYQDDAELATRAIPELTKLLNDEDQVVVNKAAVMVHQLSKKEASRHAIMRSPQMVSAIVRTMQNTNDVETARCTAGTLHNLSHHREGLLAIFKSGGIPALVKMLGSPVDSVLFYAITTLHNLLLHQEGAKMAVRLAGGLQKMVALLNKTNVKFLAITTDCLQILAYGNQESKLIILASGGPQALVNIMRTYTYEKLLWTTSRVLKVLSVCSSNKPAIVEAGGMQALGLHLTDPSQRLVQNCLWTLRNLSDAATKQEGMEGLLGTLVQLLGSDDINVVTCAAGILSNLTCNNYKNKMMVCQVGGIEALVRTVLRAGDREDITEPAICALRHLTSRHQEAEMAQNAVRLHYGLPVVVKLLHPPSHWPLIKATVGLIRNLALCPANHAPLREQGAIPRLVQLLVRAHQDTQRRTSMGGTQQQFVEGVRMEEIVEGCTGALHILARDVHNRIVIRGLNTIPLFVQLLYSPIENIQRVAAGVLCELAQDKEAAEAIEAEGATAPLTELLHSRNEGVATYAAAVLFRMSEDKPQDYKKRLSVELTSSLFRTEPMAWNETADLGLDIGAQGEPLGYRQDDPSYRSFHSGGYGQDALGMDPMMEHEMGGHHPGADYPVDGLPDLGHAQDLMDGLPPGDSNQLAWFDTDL

[2] = target: T2, biotinylated B-Catenin residues 134-665 (Uniprot ID P35222) (Homo sapiens, UniProt P35222); assay: Surface plasmon resonance (Biacore) binding to beta-catenin; conditions: read-out: SPR Kd
T2 construct: biotinylated B-Catenin residues 134-665 (Uniprot ID P35222)
T2 sequence (P35222 134-665): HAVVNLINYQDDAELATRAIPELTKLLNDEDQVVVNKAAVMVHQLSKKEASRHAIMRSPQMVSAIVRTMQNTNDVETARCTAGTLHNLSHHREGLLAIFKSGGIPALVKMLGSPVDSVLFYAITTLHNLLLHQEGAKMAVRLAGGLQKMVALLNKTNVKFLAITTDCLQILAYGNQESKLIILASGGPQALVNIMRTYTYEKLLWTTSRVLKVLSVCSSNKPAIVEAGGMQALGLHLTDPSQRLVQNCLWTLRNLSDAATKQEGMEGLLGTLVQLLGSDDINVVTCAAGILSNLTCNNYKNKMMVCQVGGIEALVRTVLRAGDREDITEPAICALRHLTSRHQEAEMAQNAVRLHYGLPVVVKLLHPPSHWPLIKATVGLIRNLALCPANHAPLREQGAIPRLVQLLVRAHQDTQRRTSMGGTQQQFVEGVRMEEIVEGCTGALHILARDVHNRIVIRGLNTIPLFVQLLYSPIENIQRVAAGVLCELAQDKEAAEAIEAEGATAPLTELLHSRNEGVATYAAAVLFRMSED
Method: In some embodiments, binding to beta-catenin may be measured by surface plasmon resonance (SPR).
Peptides at 10 mM concentration in DMSO are diluted into Biacore™ running buffer (50 mM Tris pH 8.0, 300 mM NaCl, 2% glycerol, 0.5 mM TCEP, 0.5 mM EDTA, 0.005% Tween-20, 0.09% DMSO) to afford an appropriate dilution range. […] Results were analyzed using the Biacore™ Insight Evaluation Software, fitting to a 1:1 binding model.
SPR. In some embodiments, SPR may be utilized for characterizing or assessing interactions, bindings, etc. The following protocol is described as an example. In some embodiments, SPR experiments were performed on a Biacore™ 8K (Cytiva, Marlborough, MA) instrument at 25° C. Compounds were diluted into running buffer (50 mM Tris pH 8.0, 300 mM NaCl, 2% glycerol, 0.5 mM TCEP, 0.5 mM EDTA, 0.005% Tween-20, 1% DMSO). […] Results were analyzed using the Biacore™ Insight Evaluation software, with double referencing and fitted to a 1:1 binding affinity model.

[3] = target: T3, TCF/LEF luciferase reporter in DLD1 cells (Homo sapiens, UniProt P35222); assay: TCF reporter assay in DLD1 cells (4% or 20% FBS); format: cell-based; conditions: DLD1 reporter cells; read-out: TCF reporter IC50
T3 sequence (P35222 2-781): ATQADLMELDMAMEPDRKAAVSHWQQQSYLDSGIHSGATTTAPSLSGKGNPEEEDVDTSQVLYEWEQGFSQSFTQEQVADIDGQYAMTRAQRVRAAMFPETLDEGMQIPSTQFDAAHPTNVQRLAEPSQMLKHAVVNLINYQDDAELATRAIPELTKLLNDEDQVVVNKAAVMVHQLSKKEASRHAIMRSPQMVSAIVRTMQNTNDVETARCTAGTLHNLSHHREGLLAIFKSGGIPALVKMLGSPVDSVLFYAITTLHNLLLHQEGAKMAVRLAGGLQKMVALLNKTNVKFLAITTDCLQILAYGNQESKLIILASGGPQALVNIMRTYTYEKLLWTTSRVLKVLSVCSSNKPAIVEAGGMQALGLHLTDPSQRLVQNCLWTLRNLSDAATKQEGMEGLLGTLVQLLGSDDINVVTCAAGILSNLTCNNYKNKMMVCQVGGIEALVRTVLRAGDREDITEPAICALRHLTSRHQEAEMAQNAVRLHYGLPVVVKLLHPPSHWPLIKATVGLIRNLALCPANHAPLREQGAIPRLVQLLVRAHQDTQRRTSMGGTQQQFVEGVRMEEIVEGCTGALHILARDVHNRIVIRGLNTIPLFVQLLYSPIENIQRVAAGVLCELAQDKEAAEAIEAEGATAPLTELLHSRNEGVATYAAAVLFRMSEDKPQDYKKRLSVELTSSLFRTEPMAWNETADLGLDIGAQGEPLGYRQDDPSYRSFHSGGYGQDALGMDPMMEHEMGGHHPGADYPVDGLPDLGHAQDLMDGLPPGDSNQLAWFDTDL

[4] = test system: AXIN2 transcripts in COLO320DM cells; assay: qPCR of AXIN2 transcripts in COLO320DM cells; format: cell-based, human
From the text: RT-qPCR. […] Relative gene expression levels were monitored using the Taqman Gene Expression probes for AXIN2 (Hs00610344 m1, ThermoFisher), SP5 (Hs01370227-mH, ThermoFisher), RNF43 (Hs00214886-m1, ThermoFisher), NOTUM (Hs00991061-m1, ThermoFisher), CXCL12 (Hs03676656-mH, ThermoFisher).

[5] = test system: beta-catenin driven transcription in HAP1 WT cells; assay: qPCR of beta-catenin driven transcription in HAP1 WT cells (CHIR treated); format: cell-based; conditions: CHIR treated
[6] = target: T4, beta-catenin/TCF4 interaction (Homo sapiens, UniProt P35222); assay: Co-immunoprecipitation of endogenous beta-catenin in DLD1 cells; format: cell-based
T4 construct: endogenous in cells; host or cells: DLD1
T4 sequence (P35222 2-781 limits assumed): T3 sequence (P35222 2-781)
Method: Co-Immunoprecipitation. […] In some embodiments, for co-IP experiments, DLD1 cells were treated with compounds for a period of time, e.g., 4 hours. […] Briefly, 30 μL of protein A/G magnetic beads were added to each lysate and incubated for 1 hr at room temperature.

[7] = Mouse plasma pharmacokinetics (IV, IP); format: in vivo; conditions: single intraperitoneal (IP) dose at 100 mg/kg
Method: Concentrations of agents in biological samples were measured by LC-MS/MS (Triple Quad 6500+). […] 8 uL of plasma or tissue lysate was used for LC method with mobile phase A (1% formic acid (FA, LS118-4, Fisher Scientific) in H2O) and mobile phase B (0.1% FA in ACN), 0.6 ml/min flow rate in Waters ACQUITY UPLC BEH C18 2.1*50 mm, 1.7 μm column. […] MS was conducted by electrospray ionization and multi reaction monitor scans. PK parameters such as plasma maximum concentration (Cmax), and AUC were analyzed by noncompartmental model 200 of Phoenix WinNonlin 8.3, using the linear/log trapezoidal method.
In some embodiments, concentrations of compounds, e.g., stapled peptides, in biological samples were measured by LC-MS/MS (Triple Quad 6500+). […] 8 uL of plasma or tissue lysate was used for LC method with mobile phase A (1% formic acid (FA, LS118-4, Fisher Scientific) in H2O) mobile phase B (0.1% FA in ACN), 0.6 ml/min flowrate in Waters ACQUITY UPLC BEH C18 2.1*50 mm, 1.7 um column. […] In some embodiments, MS was conducted by electrospray ionization and multi reaction monitor scans. In some embodiments, PK parameters such as plasma maximum concentration (Cmax), and AUC were analyzed by noncompartmental model 200 of Phoenix WinNonlin 8.3, using the linear/log trapezoidal method.

“Ac-PL3-Glu-Npg-B5-Glu-3COOHF-Aib-Ala-Phe-Lys*3-PyrS2-3Thi-BztA-GlnR*3-Ala-NH2 [I-470]” showed an IC50 [1] of 7.5 µM, a Kd [2] of over 5 µM and an IC50 [3] of over 20 µM. For the same substance, the “effect on AXIN2 expression level” value ([4]; COLO320DM cells) was “no or very little or non-significant effect”, the IC50 ([4]; Reduction of AXIN2 transcripts in COLO320DM cells) was over 20 µM and the “expression of AXIN2 and SP5 by qPCR (transcription)” value [5] was “No reduction”. The “beta-catenin/TCF4 interaction by co-IP and Western blotting” value [6] was “not” and the “plasma AUC” value [7] was “comparable”.
